The test system of experiment [1] is RAW264.7 murine macrophages. Kind of experiment: Cytokine/chemokine induction in wild-type RAW264.7 murine macrophages (multiplexed immunoassay). The format is cell-based. To be noted: wild-type RAW264.7 murine macrophage cell line. The procedure:
(§1) Cytokine induction by 7e and 7f was examined in murine-derived cell lines. […] The absence of activity was not due to extensive plasma protein binding by re-examining under near-serum-free conditions.
(§2) Example 5: High-throughput screens in porcine blood: Curated compound collections were obtained from the Institute for Therapeutics Discovery & Development at the University of Minnesota. Compound transfers from source (80 nL of 10 mM stocks) to assay plates were performed using an Echo 550 acoustic liquid handler (Labcyte, Sunnyvale, Calif.). For most libraries, a target final concentration of 10 μM of compound (in a final volume of 80 μL for the assay described below) was achieved. Compound plates were hermetically sealed and stored at −80° C. until used. Fresh, heparin-anticoagulated porcine blood from healthy animals were obtained under USDA supervision from Midwest Research Swine, LLC (Glencoe, Minn.). 80 μL of hematocrit-enriched porcine blood (low-speed centrifugation, followed by resuspension in DMEM supplemented with 10% fetal bovine serum) was added to compound plates and incubated for 15 h. […] NF-κB translocation was assayed spectrophotometrically using an alkaline phosphatase-specific chromogen (present in HEK-detection medium as supplied by InvivoGen) at 620 nm using a SpectraMax M4 multimode microplate reader (Molecular Devices, Sunnyvale, Calif.). […] Example 7: Human NOD1/2-specific reporter gene assays (NF-κB induction), and TLR-2/-3/-4/-5/-7/-8/-9/STING/ISG counter-screens: The induction of NF-κB was quantified using human TLR-2/-3/-4/-5/-7/-8/-9/NOD-1/NOD-2/STING/ISG-specific, rapid-throughput, liquid handler-assisted reporter gene assays as previously described by us (Wu, W. et al. J. Med. Chem. 2010, 53, 3198-3213; Shukla, N. M. et al. J. Med. Chem. 2010, 53, 4450-4465; Agnihotri, G. et al. J. Med. Chem. 2011, 54, 1490-1510 and Ukani, R. et al. Bioorg. Med. Chem. Lett. 2012, 22, 293-295). […]

Experiment [2] deals with macrophage cell line derived from TRIF/TRAM knockout mice (NR-9568). Put plainly: Cytokine/chemokine induction in TRIF/TRAM double-knockout cell line. The format is cell-based. To be noted: TRIF/TRAM double-knockout murine cell line. As to the method:
as §1, §2

“Also recorded” adds a separate entry of the source.

For the compound `CCCCCc1nc2ccccc2n1-c1csc(C(N)=O)c1` [Compound 7e, 4-(2-Pentyl-1H-benzo[d]imidazol-1-yl)thiophene-2-carboxamide], in experiment [1], the “induction of chemokines and proinflammatory cytokines” value is “potently immunostimulatory; also recorded: induction of chemokines and cytokines”. Moreover, the “cytokine and chemokine induction” value in experiment [2] was “abrogation of responsiveness”.
As for `CCCCCCc1nc2ccccc2n1-c1csc(C(N)=O)c1` [Compound 7f, 4-(2-Hexyl-1H-benzo[d]imidazol-1-yl)thiophene-2-carboxamide], in experiment [1], the “induction of chemokines and proinflammatory cytokines” value is on record as “potently immunostimulatory; also recorded: essentially identical to that of 7e”. Further, the “cytokine and chemokine induction” value in experiment [2] is “essentially identical to that of 7e”.

These data come from patent publication US11465998B2, “Therapeutic compounds and methods of use thereof” (Regents of the University of Minnesota, priority 2019, dated 2022).
